From the NIST ThermoML archive (doi:10.1016/j.tca.2010.03.027)
Numbers after ± are expanded uncertainties.

Columns and labels:
[1] = Crystal; for Normal melting temperature: DTA
[2] = xn = mol fraction of the nth substance listed; conditions: 293 K, 101 kPa, Crystal, X-ray diffraction

| SMILES | Normal melting temperature [1] [°C] | mass density ([2]; x1 = 0.15) [kg/m3] | mass density ([2]; x1 = 0.3) [kg/m3] | mass density ([2]; x1 = 0.45) [kg/m3] | mass density ([2]; x1 = 0.6) [kg/m3] | mass density ([2]; x1 = 0.75) [kg/m3] | mass density ([2]; x1 = 0.9) [kg/m3] | mass density ([2]; x1 = 1) [kg/m3] | mass density ([1]; 293 K, 101.3 kPa, X-ray diffraction) [kg/m3] |
| --- | --- | --- | --- | --- | --- | --- | --- | --- | --- |
| [Ca+2].[Cl-].[Cl-] [calcium chloride] | 770 ± 1 |  |  |  |  |  |  |  |  |
| [Br-].[Br-].[Ca+2] [calcium bromide] + [Ca+2].[Cl-].[Cl-] |  | 3536 ± 2 | 3836 ± 2 | 4112 ± 2 | 4371 ± 2 | 4628 ± 2 | 4861 ± 2 | 5060 ± 2 |  |
| [Br-].[Br-].[Ca+2] [calcium bromide] | 738 ± 1 |  |  |  |  |  |  |  | 5060 ± 2 |
